Reference: ChEMBL document CHEMBL5661943, “ASAP - In vitro antiviral effect” (2024)

Columns and labels:
[1] = system: dengue virus type 2; assay: Functional assay to measure dose dependent changes in antiviral-drug inhibitory efficacy against Dengue virus type 2 New Guinea C in Vero E6 miRFP670 cells (cotreated with P-gp inhibitor, CP100356). Cells are treated with antiviral candidates that are serially diluted, following infection, cells are fixed. EC50 is reported via analysis of fluorescence intensity using high-content imager. The …; type: organism-based, Chlorocebus sabaeus, Vero C1008; conditions: for EC90: P-gp concentration 500 nM, P-gp inhibitor CP100356
[2] = system: Zika virus; assay: Functional CPE-based assay to measure dose dependent changes in antiviral-drug inhibitory efficacy against Zika virus MR766 in Vero E6 miRFP670 cells (cotreated with P-gp inhibitor, CP100356). Cells are treated with antiviral candidates that are serially diluted. EC50 is reported via analysis of MTS assay as a readout of CPE. The assay has been performed by KU Leuven.; type: organism-based, Chlorocebus sabaeus, Vero C1008; conditions: Zika virus

SMILES: O=C(Nc1ccc2c(c1)CNC2)c1cc(F)cc2[nH]c(-c3ccccc3)nc12
- EC90 ([1]; Dengue virus, Vero C1008, Maximum measured 101.649 %, Minimum measured 101.649 %): > 0.391 µM
- EC90 ([1]; Dengue virus, Vero C1008, Maximum measured 246.46 %, Minimum measured 208.361 %): > 6.25 µM
- EC50 ([1]; vero c1008): > 6.25 µM
- EC50 ([2]; Vero C1008): 2.13 µM
- EC90 ([2]; Vero C1008, Baseline response 0 %, Hill slope 1.327, Maximum measured 69.085 %, Maximum response 100 %, Minimum measured 18.26 %, P-gp concentration 500 nM, R squared 0.744, P-gp inhibitor CP100356): > 3.12 µM

SMILES: CCCn1cc2c(C(=O)Nc3ccc4c(c3)CNC4)cc(Cl)cc2n1
- EC50 ([1]; Dengue virus, Vero C1008): > 3.12 µM
- EC90 ([1]; Dengue virus, Vero C1008, Baseline response 0 %, Hill slope 1.203, Maximum measured 92.059 %, Maximum response 100 %, Minimum measured 55.102 %, R squared 0.785): > 3.12 µM
- EC50 ([2]; Vero C1008): 3.04 µM
- EC90 ([2]; Vero C1008): 3.55 µM

SMILES: Cc1cc(-c2cc(F)cc(C(=O)Nc3ccc4c(c3)CNC4)c2)[nH]n1
- EC50 ([1]; Dengue virus, Vero C1008): > 50 µM
- EC90 ([1]; Dengue virus, Vero C1008, Baseline response 0 %, Hill slope 1.641, Maximum measured 129.562 %, Maximum response 100 %, Minimum measured 66.397 %, R squared 0.205): > 50 µM
- EC50 ([2]; Vero C1008): 19.3 µM
- EC90 ([2]; Vero C1008, Baseline response 0 %, Hill slope 1.404, Maximum measured 64.496 %, Maximum response 100 %, Minimum measured 4.475 %, P-gp concentration 500 nM, R squared 0.907, P-gp inhibitor CP100356): > 25 µM

SMILES: O=C(Nc1cc2c(cc1Br)CNC2)c1cc(Cl)cc2[nH]ncc12
- EC50 ([1]; Dengue virus, Vero C1008): > 12.5 µM
- EC90 ([1]; Dengue virus, Vero C1008, Baseline response 0 %, Hill slope -0.294, Maximum measured 95.105 %, Maximum response 100 %, Minimum measured 44.86 %, R squared 0.086): > 12.5 µM
- EC50 ([2]; Vero C1008): 1.53 µM
- EC90 ([2]; Vero C1008, Baseline response 0 %, EC90 CI (lower) 0.641 uM, EC90 CI (upper) 7.527 uM, Hill slope 6.115, Maximum measured 127.201 %, Maximum response 100 %, Minimum measured 6.803 %, P-gp concentration 500 nM, R squared 0.89, P-gp inhibitor CP100356): 2.2 µM

SMILES: COc1cc(-c2cc(NC(=O)c3cc(F)cc4[nH]ncc34)cc3c2CNC3)ccn1
- EC50 ([1]; Dengue virus, Vero C1008): > 50 µM
- EC90 ([1]; Dengue virus, Vero C1008, Baseline response 0 %, Hill slope 0.386, Maximum measured 113.678 %, Maximum response 100 %, Minimum measured 63.234 %, R squared 0.283): > 50 µM
- EC50 ([2]; Vero C1008): 3.92 µM
- EC90 ([2]; Vero C1008, Baseline response 0 %, EC90 CI (lower) 3.129 uM, EC90 CI (upper) 14.718 uM, Hill slope 4.011, Maximum measured 135.364 %, Maximum response 100 %, Minimum measured -0.295 %, P-gp concentration 500 nM, R squared 0.873, P-gp inhibitor CP100356): 6.79 µM

SMILES: O=C(NC1CCOCC1)[C@H](Nc1ccc2c(c1)CNC2)c1cc(Cl)cc2[nH]ncc12
- EC50 ([1]; Dengue virus, Vero C1008): > 50 µM
- EC90 ([1]; Dengue virus, Vero C1008, Maximum measured 134.779 %, Minimum measured 105.958 %): > 50 µM
- EC50 ([2]; Vero C1008): 16.8 µM
- EC90 ([2]; Vero C1008, Baseline response 0 %, Hill slope 1.579, Maximum measured 82.863 %, Maximum response 100 %, Minimum measured -0.215 %, P-gp concentration 500 nM, R squared 0.968, P-gp inhibitor CP100356): > 50 µM

SMILES: N#Cc1cc2c(cc1NC(=O)c1cc(F)cc3[nH]ncc13)CNC2
- EC50 ([1]; Dengue virus, Vero C1008): > 25 µM
- EC90 ([1]; Dengue virus, Vero C1008, Maximum measured 167.339 %, Minimum measured 79.168 %): > 25 µM
- EC50 ([2]; Vero C1008): 2.09 µM
- EC90 ([2]; Vero C1008, Baseline response 0 %, EC90 CI (lower) 2.64 uM, EC90 CI (upper) 7.54 uM, Hill slope 2.894, Maximum measured 123.396 %, Maximum response 100 %, Minimum measured 1.493 %, P-gp concentration 500 nM, R squared 0.93, P-gp inhibitor CP100356): 4.46 µM

SMILES: C[C@H]1C(=O)Nc2ccc(C(=O)Nc3ccc4c(c3)CNC4)cc21
- EC50 ([1]; Dengue virus, Vero C1008): > 50 µM
- EC90 ([1]; Dengue virus, Vero C1008, Maximum measured 179.475 %, Minimum measured 83.637 %): > 50 µM
- EC50 ([2]; Vero C1008): > 50 µM
- EC90 ([2]; Vero C1008, Maximum measured 0.465 %, Minimum measured -1.56 %, P-gp concentration 500 nM, P-gp inhibitor CP100356): > 50 µM

SMILES: O=C(NCC(F)F)[C@H](Nc1cnc2c(c1)CNC2)c1cc(Cl)cc(C2CC2)c1
- EC50 ([1]; Dengue virus, Vero C1008): > 50 µM
- EC90 ([1]; Dengue virus, Vero C1008, Maximum measured 147.541 %, Minimum measured 99.767 %): > 50 µM
- EC50 ([2]; Vero C1008): 0.828 µM
- EC90 ([2]; Vero C1008, Baseline response 0 %, EC90 CI (lower) 1.299 uM, EC90 CI (upper) 2.383 uM, Hill slope 2.915, Maximum measured 110.454 %, Maximum response 100 %, Minimum measured 12.588 %, P-gp concentration 500 nM, R squared 0.958, P-gp inhibitor CP100356): 1.76 µM

SMILES: CCCNC(=O)[C@H](Nc1ccc2c(c1)CNC2)c1cc(Cl)cc2[nH]ncc12
- EC50 ([1]; Dengue virus, Vero C1008): > 50 µM
- EC90 ([1]; Dengue virus, Vero C1008, Maximum measured 131.319 %, Minimum measured 89.09 %): > 50 µM
- EC50 ([2]; Vero C1008): 6.6 µM
- EC90 ([2]; Vero C1008, Baseline response 0 %, EC90 CI (lower) 8.551 uM, EC90 CI (upper) 22.021 uM, Hill slope 3.004, Maximum measured 121.473 %, Maximum response 100 %, Minimum measured -0.697 %, P-gp concentration 500 nM, R squared 0.949, P-gp inhibitor CP100356): 13.7 µM

SMILES: O=C1Cc2cc(C(=O)Nc3ccc4c(c3)CNC4)ccc2N1
- EC50 ([1]; Dengue virus, Vero C1008): > 50 µM
- EC90 ([1]; Dengue virus, Vero C1008, Maximum measured 132.031 %, Minimum measured 88.326 %): > 50 µM
- EC90 ([1]; Dengue virus, Vero C1008, Maximum measured 147.509 %, Minimum measured 105.326 %): > 50 µM
- EC90 ([1]; Dengue virus, Vero C1008, Maximum measured 183.11 %, Minimum measured 101.645 %): > 50 µM
- EC50 ([2]; Vero C1008): > 50 µM
- EC90 ([2]; Vero C1008, Maximum measured 9.003 %, Minimum measured -9.167 %, P-gp concentration 500 nM, P-gp inhibitor CP100356): > 50 µM
- EC90 ([2]; Vero C1008, Baseline response 0 %, Hill slope 1.599, Maximum measured 7.523 %, Maximum response 100 %, Minimum measured -2.208 %, P-gp concentration 500 nM, R squared 0.547, P-gp inhibitor CP100356): > 50 µM

SMILES: O=C(Nc1cc2c(cc1Br)CNC2)c1cc(F)cc2[nH]ncc12
- EC50 ([1]; Dengue virus, Vero C1008): > 25 µM
- EC90 ([1]; Dengue virus, Vero C1008, Baseline response 0 %, Hill slope -2.027, Maximum measured 102.892 %, Maximum response 100 %, Minimum measured 55.622 %, R squared 0.83): > 25 µM
- EC50 ([2]; Vero C1008): 0.721 µM
- EC90 ([2]; Vero C1008, Baseline response 0 %, EC90 CI (lower) 0.74 uM, EC90 CI (upper) 4.973 uM, Hill slope 2.246, Maximum measured 124.778 %, Maximum response 100 %, Minimum measured 29.701 %, P-gp concentration 500 nM, R squared 0.756, P-gp inhibitor CP100356): 1.92 µM

SMILES: O=C(Nc1ccc2c(c1)CNC2)c1cccc2c(C3CNC3)n[nH]c12
- EC50 ([1]; Dengue virus, Vero C1008): > 50 µM
- EC90 ([1]; Dengue virus, Vero C1008, Maximum measured 103.764 %, Minimum measured 75.286 %): > 50 µM
- EC50 ([2]; Vero C1008): 9.06 µM
- EC90 ([2]; Vero C1008, Baseline response 0 %, EC90 CI (lower) 13.229 uM, EC90 CI (upper) 28.268 uM, Hill slope 2.896, Maximum measured 113.87 %, Maximum response 100 %, Minimum measured -0.433 %, P-gp concentration 500 nM, R squared 0.955, P-gp inhibitor CP100356): 19.3 µM

SMILES: COC(=O)c1cc(Br)cc2c(Cc3ccc(-c4nnn[nH]4)cc3)c[nH]c12
- EC50 ([1]; Dengue virus, Vero C1008): > 50 µM
- EC90 ([1]; Dengue virus, Vero C1008, Maximum measured 157.502 %, Minimum measured 51.504 %): > 50 µM
- EC50 ([2]; Vero C1008): > 50 µM
- EC90 ([2]; Vero C1008, Baseline response 0 %, Hill slope 0.557, Maximum measured 36.25 %, Maximum response 100 %, Minimum measured -2.518 %, P-gp concentration 500 nM, R squared 0.117, P-gp inhibitor CP100356): > 50 µM

SMILES: N#CCc1cc(NC(=O)c2cc(F)cc3[nH]ncc23)cc2c1CNC2
- EC50 ([1]; Dengue virus, Vero C1008): > 50 µM
- EC90 ([1]; Dengue virus, Vero C1008, Maximum measured 146.108 %, Minimum measured 103.208 %): > 50 µM
- EC50 ([2]; Vero C1008): 41.5 µM
- EC90 ([2]; Vero C1008, Baseline response 0 %, Hill slope 1.989, Maximum measured 59.393 %, Maximum response 100 %, Minimum measured -2.191 %, P-gp concentration 500 nM, R squared 0.98, P-gp inhibitor CP100356): > 50 µM

SMILES: CN(c1ccc2c(c1)CNC2)[C@H](C(=O)NCC(F)F)c1cc(Cl)cc(C2CC2)c1
- EC50 ([1]; Dengue virus, Vero C1008): > 3.12 µM
- EC90 ([1]; Dengue virus, Vero C1008, Baseline response 0 %, Hill slope -0.632, Maximum measured 86.584 %, Maximum response 100 %, Minimum measured 48.476 %, R squared 0.311): > 3.12 µM
- EC50 ([2]; Vero C1008): 0.859 µM
- EC90 ([2]; Vero C1008, Baseline response 0 %, EC90 CI (lower) 0.179 uM, EC90 CI (upper) 7.248 uM, Hill slope 7.833, Maximum measured 121.708 %, Maximum response 100 %, Minimum measured 8.623 %, P-gp concentration 500 nM, R squared 0.915, P-gp inhibitor CP100356): 1.14 µM

SMILES: Clc1cc(CNc2ccc3c(c2)CNC3)c2cn[nH]c2c1
- EC50 ([1]; Dengue virus, Vero C1008): 3.18 µM
- EC90 ([1]; Dengue virus, Vero C1008, Baseline response 0 %, Hill slope -0.438, Maximum measured 74.942 %, Maximum response 100 %, Minimum measured 39.794 %, R squared 0.558): > 12.5 µM
- EC50 ([2]; Vero C1008): 17.9 µM
- EC90 ([2]; Vero C1008, Baseline response 0 %, Hill slope 3.353, Maximum measured 76.866 %, Maximum response 100 %, Minimum measured 0.884 %, P-gp concentration 500 nM, R squared 0.96, P-gp inhibitor CP100356): > 25 µM

SMILES: O=C(Nc1ccc2c(c1)CNC2)c1cc(Cl)cc2c1NCCC2
- EC50 ([1]; Dengue virus, Vero C1008): > 50 µM
- EC90 ([1]; Dengue virus, Vero C1008, Baseline response 0 %, Hill slope 0.298, Maximum measured 134.107 %, Maximum response 100 %, Minimum measured 52.01 %, R squared 0.047): > 50 µM
- EC50 ([2]; Vero C1008): > 50 µM
- EC90 ([2]; Vero C1008, Maximum measured 8.781 %, Minimum measured -16.872 %, P-gp concentration 500 nM, P-gp inhibitor CP100356): > 50 µM

SMILES: O=C(Nc1ccc2c(c1)CN[C@H]2C[C@H](O)CO)c1cc(F)cc2[nH]ncc12
- EC50 ([1]; Dengue virus, Vero C1008): > 50 µM
- EC90 ([1]; Dengue virus, Vero C1008, Baseline response 0 %, Hill slope 0.494, Maximum measured 181.349 %, Maximum response 100 %, Minimum measured 67.92 %, R squared 0.043): > 50 µM
- EC50 ([2]; Vero C1008): > 50 µM
- EC90 ([2]; Vero C1008, Maximum measured 5.346 %, Minimum measured 2.665 %, P-gp concentration 500 nM, P-gp inhibitor CP100356): > 50 µM
